{"source": "patent US20050226879A1", "about": "“Methods and compositions related to inhibiting nuclear envelope breakdown” (priority 2002, published 2005)", "assay_type_in_all_cases": "biochemical, Xenopus laevis", "key": {"[1]": {"test_system": "nuclear envelope breakdown", "experiment": "In vitro nuclear disassembly assay (nuclei assembled in Xenopus egg extract, cyclin B added)", "conditions": "for function in the nuclear disassembly assay (inhibition of nuclear envelope breakdown): synthetic peptides 44 μM, 15 minutes prior to sperm chromatin, assessed 75 and 95 minutes post cyclin, qualitative", "source_text": "To investigate whetherNup153 participates in nuclear envelope breakdown, recombinant fragments of Nup153 were examined to determine if they exert dominant negative effects on this process in vitro. Cell-free extracts derived from Xenopus eggs were used to form synthetic nuclei around sperm chromatin. This system offers the advantage of biochemical manipulation, while being well-established to robustly recapitulate both nuclear assembly as well as nuclear disassembly in response to mitotic signals (Murray, A. W. et al., Nature 339, 280-286 (1989)). Cycloheximide was included to prevent synthesis of cyclin, thereby arresting these extracts in interphase. After nuclei were assembled, a recombinant form of stabilized cyclin B was added to initiate mitotic events. […] Detection of import cargo provided the clearest visualization of whether a nuclear envelope was intact. […] A control GST fusion protein (FIG. 7B, lanes 1 and 5) likewise had no effect (FIG. 7C, panels g and h). […] In addition, nuclear import cargo was still concentrated in nuclei under mitotic conditions, confirming both the presence and integrity of the nuclear envelope (FIG. 7C, panel o). The effect of the Nup153 zinc finger was not due to selective stability of this fragment, as equivalent levels of recombinant protein were detected in each reaction by immunoblot following the last time point (FIG. 7B, lanes 9-11).\nInterphase Xenopus egg extracts were prepared using egg lysis buffer (ELB: 250 mM sucrose, 50 mM KCl, 2.5 mM MgCl2, 10 mM Hepes pH 7.4) supplemented with 1 mM dithiothreitol (DTT), 5 μg/ml cytochalasin B, aprotinin and leupeptin (10 μg/ml each), and 50 μg/ml cycloheximide (Powers, et al., In Current Protocols in Cell Biology (New York, John Wiley & Sons), pp. 11.10.11-11.11.24, (2001). Eggswere lysed by centrifugation for 15 min at 10,000 rpm. The cytoplasmic layer was collected as crude extract. For preparation of fiactionated egg extract, the crude extract was further centrifuged for 1.5 hr at 268,000 x g. The clarified supernatant was removed and further centrifuged for 1 hr at 259,000 x g to remove residual membranes. The crude extract was stored in liquid nitrogen; fractionated extract was frozen in liquid nitrogen and then stored at −80° C.\n(§1) Demembranated condensed sperm chromatin was isolated from Xenopus testes as described previously (Powers, et al., In Current Protocols in Cell Biology (New York, John Wiley & Sons), pp. 11.10.11-11.11.24, (2001). For the assembly of nuclei, an ATP-generating system was added to 28 μl of crude egg extract. Sperm chromatin was added and nuclei were allowed to assemble by incubation at room temperature. After assembly for 1 hr, import substrate (NLS-HSA-RITC, prepared as in (Powers, et al., In Current Protocols in Cell Biology (New York, John Wiley & Sons), pp. 11.10.11-11.11.24, (2001)) was added to the reaction and incubated for another 30 min to assess the presence of functional pores and membrane integrity. Recombinant cyclin B with a deletion that confers stability was then added to the nuclei to initiate mitotic events (Murray, A. W., et al., Nature 339, 280-286 (1989). The role of cyclin synthesis and degradation in the control of maturation promoting factor activity Nature 339, 280-286, 1989). Samples were taken from the reaction at the indicated time points to monitor by fluorescence microscopy using DHCC (Calbiochem, San Diego, Calif.) to monitor membranes and Hoechst 33258 (Calbiochem) to monitor DNA. To examine the effects of protein fragments and antibodies on nuclear disassembly, the reagent in question was incubated with crude extract for 15 minutes at room temperature prior to the addition of sperm chromatin and energy mix. As noted, for protein fragments either 3 μg (corresponding to final concentrations of 3.3 μM, 1.7 μM, and 1.5 μM for GST, GST-N, and GST-Z respectively) or 4 μg (corresponding to final concentrations of 4.4 μM and 2 μM for GST and GST-Z respectively) was added. […]"}, "[2]": {"test_system": "nuclear envelope breakdown", "experiment": "In vitro nuclear disassembly assay (nuclei assembled in Xenopus egg extract, cyclin B added)", "conditions": "peptide added after nuclear assembly has taken place"}, "[3]": {"test_system": "nuclear assembly and NLS-mediated import", "experiment": "Nuclear assembly and NLS import in egg extract (interphase)", "conditions": "ARF peptide 22 μM present", "description": "as §1, with “DNA.” for “DNA. To examine the effects of protein fragments and antibodies on nuclear disassembly, the reagent in question was incubated with crude extract for 15 minutes at room temperature prior to the addition of sperm chromatin and energy mix. As noted, for protein fragments either 3 μg (corresponding to final concentrations of 3.3 μM, 1.7 μM, and 1.5 μM for GST, GST-N, and GST-Z respectively) or 4 μg (corresponding to final concentrations of 4.4 μM and 2 μM for GST and GST-Z respectively) was added.”"}}, "note": "“Also recorded” adds a separate entry of the source."}
{"compound": "CEQTYRVCGGGS (CEQTLYRVCGGGS)", "values": [{"measurement": "function in the nuclear disassembly assay (inhibition of nuclear envelope breakdown)", "setting": "[1]", "value": "not inhibitory"}]}
{"compound": "CTHPFTHECGGGS [ZNFPHD1]", "values": [{"measurement": "function in the nuclear disassembly assay", "setting": "[2]", "value": "not inhibitory"}, {"measurement": "inhibition of nuclear envelope breakdown", "setting": "[1]; synthetic form as well as displayed form", "value": "capable of inhibiting nuclear envelope breakdown"}, {"measurement": "function in the nuclear disassembly assay (inhibition of nuclear envelope breakdown)", "setting": "[1]", "value": "inhibitory"}]}
{"compound": "CNNTRSPYCGGGS", "values": [{"measurement": "function in the nuclear disassembly assay (inhibition of nuclear envelope breakdown)", "setting": "[1]", "value": "not inhibitory"}]}
{"compound": "(C)ESGELKPEDDVTVGPAQK (CESGELKPEDDVTVGPAQK; N-terminal cysteine) [immunogenic peptide]", "values": [{"measurement": "protective effect of anti-β-COP antibodies on inclusion of the peptide", "setting": "[1]; anti-β-COP 5 μg incubated with β-COP peptide 5 μg for 15 min before addition", "value": "blocked"}]}
{"compound": "CGEHVRPSCGGGS", "values": [{"measurement": "function in the nuclear disassembly assay (inhibition of nuclear envelope breakdown)", "setting": "[1]", "value": "did not have activity"}]}
{"compound": "EKKGFLGKFLNAF MNG (EKKGFLGKFLNAFMNG) [ARF 17-2]", "values": [{"measurement": "effect on nuclear disassembly", "setting": "[1]; ARF peptides 22 μM, 75 minutes after cyclin addition", "value": "no significant affect"}]}
{"compound": "GNMFANLFKGLFGKKE [ARF peptide]", "values": [{"measurement": "nuclei remaining intact", "setting": "[1]; ARF peptide 22 μM, 75 minutes after cyclin addition", "value": 90, "unit": "%"}, {"measurement": "nuclear assembly", "setting": "[3]", "value": "proceeded"}]}
{"compound": "C[C@H]1CCC/C=C/[C@@H]2C[C@H](O)C[C@H]2[C@H](O)/C=C/C(=O)O1", "note": "[Brefeldin A]", "values": [{"measurement": "effect on nuclear envelope breakdown", "setting": "[1]; Brefeldin A 0.6 μg/ml final, added 15 min prior to assembly", "value": "interferes with nuclear envelope breakdown; also recorded: very clear interference of nuclear envelope breakdown"}]}
